Experimental findings from patent publication US20220280602A1, “ANTICANCER AGENT AND METHOD FOR PREPARATION OF POROUS SILICA PARTICLE” (LEMONEX INC., priority 2019, published 2022) are described below.

The test system of test [1] is MCF-7 cells. Briefly: Assessment of cytotoxicity by MTT assay. It is filed as cell-based. The conditions noted are these: 1 day treatment. Here is the method:
MCF-7 cells were seeded at 10,000 cells/well in 96-well cell culture plates. After 1 day, different concentrations of each particle (4 to 500 μg/mL) were treated with a serum-containing medium in each well for 1 day. Thereafter, the culture was performed for 4 hours while replacing the above medium with a serum-free medium containing 10 μl of MTT assay kit, and the supernatant was aspirated. DMSO was added to each well to dissolve formazan, and reacted for 1 hour. The absorbance was measured at a wavelength of 570 nm, and the cell viability was calculated as a relative value to that of the untreated group.
(In general: Tetrazolium dyes change colour on reduction, which living cells bring about.)

For test [2], the system named is MCF-7 cells expressing LC3-GFP. Briefly: Measurement of the number of GFP-LC3 puncta (autophagy induction). It is filed as cell-based. As to conditions: MCF-7 expressing LC3-GFP, 6 hours, serum-free medium. As to the method: Using lipofectamine 2000, LC3-GFP plasmid was transfected into MCF-7 cells. Transfected MCF-7 was selected with 800 μg/mL of G418 for 3 months. […] 100,000 MCF-7 cells expressing LC3-GFP were seeded.
40 μg of dye-labeled particles and 4 μg of bec1 peptide were mixed, and the cells were treated for 6 hours in a serum-free medium. Cells were fixed with 4% PFA, and nuclei were stained with DAPI. Images were obtained with a Delta-vision microscope, and the number of GFP-LC3 puncta was measured in 100 cells for each group.

On to “CGGTNVFNATFHIWHSGQFGT (listed as Homo sapiens) [Bec1 peptide]”, for which the “Cell viability compared to non-treated group” value in test [1] is recorded as “not significantly varied”. Also, the “Amount of GFP puncta” value in test [2] is “very little amount”.
